Data taken from ChEMBL document CHEMBL5236650, “Nonhydrolyzable d‑phenylalanine-benzoxazole derivatives retain antitubercular activity” (Bioorg Med Chem Lett, 2023).
In brackets after ≈: the same amount, converted by molar mass.

Key:
[1] = test system: Mycobacterium tuberculosis; experiment: Antitubercular activity against Mycobacterium tuberculosis H37Rv ATCC 27294 cultured in 7H9/ADC/Tw media assessed as inhibition of bacterial growth incubated for 7 days; type: functional; settings: H37Rv ATCC 27294, 168 h, time 7 day
[2] = test system: Mycobacterium tuberculosis; experiment: Antitubercular activity against Mycobacterium tuberculosis H37Rv ATCC 27294 cultured in GAST/Fe media assessed as inhibition of bacterial growth incubated for 7 days; type: functional; settings: H37Rv ATCC 27294, 168 h, time 7 day
[3] = Stability in mouse plasma assessed as half life; type: ADME, cell-free
[4] = Protein binding in mouse plasma assessed as free fraction; type: ADME, cell-free
[5] = test system: Mycobacterium tuberculosis; experiment: Antitubercular activity against Mycobacterium tuberculosis H37Rv ATCC 27294 cultured in 7H9/DPPC/casitone/Tx media assessed as inhibition of bacterial growth incubated for 7 days; type: functional; settings: H37Rv ATCC 27294, 168 h, time 7 day
[6] = Drug metabolism in mouse plasma assessed as 2-(4-methoxyphenyl)benzo[d]oxazol-5-amine formation; type: ADME, cell-free

| SMILES | MIC [1] [µM] | MIC [2] [µM] | half-life [3] [h] | fraction unbound [4] | Fu [4] [%] | MIC [5] [µM] | Drug metabolism [6] |
| --- | --- | --- | --- | --- | --- | --- | --- |
| COc1ccc(-c2nc3cc(NC(=S)[C@H](N)Cc4ccccc4)ccc3o2)cc1 | 37 (≈ 14.9 µg/mL) | 19 (≈ 7.67 µg/mL) |  |  |  |  |  |
| C#CCOc1ccc(-c2nc3cc(NC(=O)[C@H](N)Cc4ccccc4)ccc3o2)cc1 | 1.2 (≈ 0.494 µg/mL) |  | 5 | < 0.004 |  |  |  |
| COc1ccc(-c2nc3cc(-n4cc([C@H](N)Cc5ccccc5)nn4)ccc3o2)cc1 | 6.25 (≈ 2.57 µg/mL) | 6.25 (≈ 2.57 µg/mL) | > 4 |  | 0.65 |  |  |
| N[C@H](Cc1ccccc1)C(=O)Nc1ccc2oc(-c3ccc(O)cc3)nc2c1 | 1.2 (≈ 0.448 µg/mL) | 2.3 (≈ 0.859 µg/mL) |  |  |  |  |  |
| COc1ccc(Cc2nc3cc(NC(=O)[C@H](N)Cc4ccccc4)ccc3o2)cc1 | 3.13 (≈ 1.26 µg/mL) | 3.13 (≈ 1.26 µg/mL) |  |  |  |  |  |
| N[C@H](Cc1ccccc1)C(=O)Nc1ccc2ocnc2c1 | > 50 | 25 (≈ 7.03 µg/mL) |  |  |  |  |  |
| COc1ccc(-c2nc3cc(N)ccc3o2)cc1 | ≥ 12.5 |  |  |  |  |  |  |
| COc1ccc(-c2nc3cc(NC(=O)[C@H](N)[C@@H](O)c4ccccc4)ccc3o2)cc1 | > 50 | 25 (≈ 10.1 µg/mL) |  |  |  |  |  |
| N[C@H](Cc1ccccc1)C(=O)Nc1ccc2oc(-c3ccc(OC(F)(F)F)cc3)nc2c1 | 3.13 (≈ 1.38 µg/mL) | 3.13 (≈ 1.38 µg/mL) |  |  |  |  |  |
| CCOC(=O)COc1ccc(-c2nc3cc(NC(=O)[C@H](N)Cc4ccccc4)ccc3o2)cc1 | 3.13 (≈ 1.44 µg/mL) | 2.3 (≈ 1.06 µg/mL) |  |  |  |  |  |
| COc1ccc(-c2nc3cc(C(=O)NC[C@H](N)Cc4ccccc4)ccc3o2)cc1 | 6.25 (≈ 2.51 µg/mL) |  | > 4 |  | 1.2 | 6.25 (≈ 2.51 µg/mL) |  |
| N[C@@H](CC(=O)Nc1ccc2oc(-c3ccc(O)cc3)nc2c1)Cc1ccccc1 | 19 (≈ 7.36 µg/mL) | 19 (≈ 7.36 µg/mL) |  |  |  |  |  |
| COc1ccc(-c2nc3cc(NC[C@H](N)Cc4ccccc4)ccc3o2)cc1 | 12.5 (≈ 4.67 µg/mL) | 9.4 (≈ 3.51 µg/mL) | > 4 |  | < 0.1 |  |  |
| N[C@H](CCc1ccccc1)C(=O)Nc1ccc2oc(-c3ccc(O)cc3)nc2c1 | 3.13 (≈ 1.21 µg/mL) | 3.13 (≈ 1.21 µg/mL) |  |  |  |  |  |
| COc1ccc(-c2nc3cc(NC(=O)[C@H](N)Cc4ccccc4)ccc3o2)cc1 | 1.56 (≈ 0.604 µg/mL) | 1.56 (≈ 0.604 µg/mL) | 0.417 |  |  |  | Metabolite_Detected |
